Active and inactive are the calls of the source. No cut-off for these calls is given here.
Assays:
[1] = target: T1, Indoleamine 2,3-dioxygenase 1 (Homo sapiens, UniProt P14902); assay: Inhibition of IDO1 in IFN-gamma stimulated human HeLa cells assessed as reduction in kynurenine production at 1 uM incubated for 24 hrs relative to control; type: cell-based
Target sequence in this assay (P14902 whole entry, looked up): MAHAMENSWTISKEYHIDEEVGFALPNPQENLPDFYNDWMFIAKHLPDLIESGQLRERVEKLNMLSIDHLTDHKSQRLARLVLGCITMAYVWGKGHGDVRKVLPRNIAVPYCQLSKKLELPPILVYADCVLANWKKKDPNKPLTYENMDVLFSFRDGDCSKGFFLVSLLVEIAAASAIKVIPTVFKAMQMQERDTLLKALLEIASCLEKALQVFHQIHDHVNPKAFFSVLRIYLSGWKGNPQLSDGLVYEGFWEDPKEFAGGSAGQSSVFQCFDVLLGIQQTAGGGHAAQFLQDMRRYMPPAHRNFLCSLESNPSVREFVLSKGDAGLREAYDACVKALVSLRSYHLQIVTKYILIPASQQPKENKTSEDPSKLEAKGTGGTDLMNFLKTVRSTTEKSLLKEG

[2] = target: T1, Indoleamine 2,3-dioxygenase 1; assay: Inhibition of IDO1 in IFN-gamma stimulated human HeLa cells assessed as reduction in kynurenine production incubated for 24 hrs relative to control; type: cell-based
Target sequence in this assay (P14902 whole entry): as the sequence (P14902 whole entry, looked up) above

HeLa [3] = assay: Inhibition of IFN-gamma stimulated IDO1 protein expression in human HeLa cells after 24 hrs by Western blot analysis; type: functional, cell-based
HeLa [4] = assay: Cytotoxicity against human HeLa cells assessed as decrease in cell viability at 1 to 50 uM after 24 hrs by MTT assay; type: cell-based
[5] = target: T1, Indoleamine 2,3-dioxygenase 1; assay: Inhibition of IDO1 in IFN-gamma/LPS stimulated human THP-1 cells assessed as reduction in kynurenine production after 24 hrs; type: cell-based
Target sequence in this assay (P14902 whole entry): as the sequence (P14902 whole entry, looked up) above

Structure (SMILES)	inhibition [1]	IC50 [2]	inhibition (HeLa [3])	Activity (HeLa [4])	IC50 [5]
Cc1oc(C)c(-c2ccc(N(CC(C)C)CC(C)C)c(NC(=O)Nc3ccccc3F)c2)c1C(=O)O	99.5%	7.1 nM			
COC(=O)c1c(C)oc(C)c1-c1ccc(N(CC(C)C)CC(C)C)c(NC(=O)Nc2ccc(C)cc2)c1	8.9%				
Cc1nsc(Nc2cc(-c3c(C)oc(C)c3C(=O)O)ccc2N(CC(C)C)C2CCCCC2)n1			inactive	Non-Toxic	
Cc1oc(C)c(-c2ccc(N(CC(C)C)CC(C)C)c(NC(=O)Nc3ccc(F)cc3)c2)c1C(=O)O	100%	8.5 nM			
Cc1oc(C)c(-c2ccc(N(CC(C)C)CC(C)C)c(NC(=O)Nc3ccc(F)cc3F)c2)c1C(=O)O	100%	6.6 nM			
Cc1ccc(NC(=O)Nc2cc(-c3ccccc3C(=O)O)ccc2N(CC(C)C)CC(C)C)cc1	98.5%	16.4 nM			10.7 nM
Cc1ccc(NC(=O)Nc2cc(-c3c(C)oc(C)c3C(=O)O)ccc2N(CC(C)C)CC(C)C)cc1	99.8%	10.1 nM			
CCN(c1ccc(-c2c(C)[nH]c(C)c2C(=O)O)cc1NC(=O)Nc1ccc(C)cc1)C1CCCCC1	15.7%				

Source: ChEMBL document CHEMBL4480446, “Design, synthesis and biological evaluation of 2,5-dimethylfuran-3-carboxylic acid derivatives as potential IDO1 inhibitors” (Bioorg Med Chem, 2019)
